This is an account of results in PMC8962522, “Direct interaction of TrkA/CD44v3 is essential for NGF-promoted aggressiveness of breast cancer cells” (Journal of Experimental & Clinical Cancer Research : CR, 2022).

The subject of one experiment is TrkA phosphorylation. Description: Western blot of TrkA phosphorylation. In kind it is cell-based. From the text: To further elucidate the mechanism of action of CD44v3 mimetic peptide 4, we studied its effect on the TrkA signaling pathway. First, we performed western blot analysis to determine the effect of mimetic peptide 4 on TrkA phosphorylation (Fig. 5A). […] Therefore, we performed acceptor (photo) bleaching (AB)-FRET to examine the effect of CD44v3 mimetic peptide 4 on NGF-induced RhoA activity in MDA-MB-231 cells transfected with a RhoA FRET biosensor [18] (Fig. 5B). […] Additionally, to confirm that this effect was independent of TrkA phosphorylation, we measured RhoA activation in MDA-MB-231 cells expressing dead TrkA kinase, which cannot be phosphorylated (Fig. 5D). […] Furthermore, a similar decrease in RhoA activation was obtained using the TrkA-H112A mutation, which also prevents the formation of the TrkA/CD44v3 complex in the absence or presence of the TrkA kinase inhibitor k252A (Supplementary Fig. 11B & C, Supplementary Video 1 & 2).
Fig. 5 CD44v3 is implicated in the phospho-TrkA-independent activation of RhoA GTPase. Phosphorylation of TrkA was measured in the presence of a scramble peptide or CD44v3 mimetic peptide 4 (P4) in the presence or absence of NGF (A). Schematic representation of the Rho biosensor; (B). […] Phosphorylation of TrkA and downstream Akt in wild-type MDA-MB-231 and MDA-MB-231 cells expressing kinase-dead TrkA, as determined by western blotting (D). […]

In experiment [1] the test system is CD44v3 in MDA-MB-231 cells. Nature of the experiment: Immunofluorescence, membrane CD44v3. In kind it is cell-based. To be noted: MDA-MB-231, immunofluorescence/confocal, NGF. From the text:
The CD44v3- and CD44v6-containing isoforms expressing respectively exon 8 and 11(Fig. 1A) can interact with growth factor receptors. Using COS-7 cells with low CD44 and TrkA expression (Supplementary Fig. 1A-D), we differentially expressed TrkA and CD44s or a CD44 variant, either CD44v3 or CD44v6 (Fig. 1B, supplementary Fig. 2). […] Additionally, we evaluated the expression of TrkA and CD44v3 at the membrane level or in cells by immunofluorescence in MDA-MB-231 cells.
Supplementary file 13046_2022_2314_MOESM3_ESM.pdf: Additional file 3: Supplementary Figure 1. Validation of the ectopic expression of CD44 and/or TrkA in COS-7 cells. The expression of all CD44 isoforms (A), CD44 variant 3 (B), CD44 variant 6 (C) and TrkA ([…]; D) was evaluated by RT–qPCR (normalized using PUM-1). No expression of CD44, CD44 variants [3 or 6] or TrkA was detected in COS-7 cells (A-D) compared with that in cells transfected with the expression plasmid carrying each protein. […] Quantification of the PLA results was performed using ImageJ software (30 randomly chosen fields per condition of three different experiments). […] CD44v3 and CD44v6 levels at the plasma membrane were assessed by flow cytometry (A-D). The plasma membrane and total TrkA and CD44v3 levels were also quantified by confocal microscopy (E-H). […] The CD44v3/NGF interaction was evaluated using microscale thermophoresis (MST). […]

For experiment [2] the following is noted: cited from earlier work. An excerpt: With more functions than those of a membrane receptor, CD44 is a multifunctional platform implicated in numerous physiological and disease mechanisms. In cancer, it has many functions (e.g., adhesion, migration/invasion, growth, differentiation, and resistance to therapies) depending on the splice variant expressed, corresponding ligands, posttranscriptional modifications, and association with growth factors and different membrane proteins.

As for “IDDDEDFISST [Peptide 4, mimetic peptide 4 (…) corresponding to the C-terminal region of CD44v3]”, the “effect on NGF-induced TrkA phosphorylation” value in the experiment with TrkA phosphorylation is recorded as “did not inhibit TrkA phosphorylation induced by NGF”.

“NGF: recombinant human β-NGF (Alomone Labs, Israel)”: in experiment [1], the “level of CD44v3 at the membrane (in words)” value is “increased at the membrane until 15 min of NGF treatment and then decreased”. The “binding to heparin (in words)” value in experiment [2] is given as “does not bind heparin”.
